This passage reports EC50 results from patent US11179383B2 (Gilead Sciences, Inc., priority 2018, dated 2021).

In the assay the target is T1, α4β7 integrin (Homo sapiens, UniProt P13612+P26010).
T1 construct: monitoring the capture of α4β7 integrin expressing cells on a recombinant MadCAM-1 extracellular domain-coated plate; endogenous in cells; host or cells: RPMI8866 cells
T1 sequence (P13612 34-1032): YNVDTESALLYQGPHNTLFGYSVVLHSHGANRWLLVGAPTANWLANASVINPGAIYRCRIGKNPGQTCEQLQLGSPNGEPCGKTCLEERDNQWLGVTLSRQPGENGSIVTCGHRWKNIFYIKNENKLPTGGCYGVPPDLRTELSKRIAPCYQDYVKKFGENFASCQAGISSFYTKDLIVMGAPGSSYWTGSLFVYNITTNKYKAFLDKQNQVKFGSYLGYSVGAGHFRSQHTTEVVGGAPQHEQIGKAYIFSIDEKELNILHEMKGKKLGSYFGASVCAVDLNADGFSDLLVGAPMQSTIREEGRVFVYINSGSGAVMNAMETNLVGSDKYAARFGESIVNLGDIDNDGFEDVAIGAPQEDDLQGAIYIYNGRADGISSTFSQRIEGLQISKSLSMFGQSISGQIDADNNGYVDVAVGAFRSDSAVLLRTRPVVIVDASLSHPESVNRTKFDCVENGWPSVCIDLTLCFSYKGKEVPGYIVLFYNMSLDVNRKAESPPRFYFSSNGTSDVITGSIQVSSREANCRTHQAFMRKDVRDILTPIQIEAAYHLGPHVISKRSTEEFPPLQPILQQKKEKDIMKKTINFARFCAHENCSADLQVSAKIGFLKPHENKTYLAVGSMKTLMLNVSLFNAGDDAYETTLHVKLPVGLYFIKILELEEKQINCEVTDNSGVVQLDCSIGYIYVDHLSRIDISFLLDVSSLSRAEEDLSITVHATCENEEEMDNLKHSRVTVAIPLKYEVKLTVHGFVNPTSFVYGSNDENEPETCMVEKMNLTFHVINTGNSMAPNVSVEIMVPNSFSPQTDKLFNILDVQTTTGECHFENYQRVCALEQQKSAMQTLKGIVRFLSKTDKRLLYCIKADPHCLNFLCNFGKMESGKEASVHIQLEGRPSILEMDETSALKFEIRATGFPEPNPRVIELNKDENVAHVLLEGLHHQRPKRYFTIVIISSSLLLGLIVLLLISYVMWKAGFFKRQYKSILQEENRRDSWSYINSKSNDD
T1 sequence (P26010 20-798): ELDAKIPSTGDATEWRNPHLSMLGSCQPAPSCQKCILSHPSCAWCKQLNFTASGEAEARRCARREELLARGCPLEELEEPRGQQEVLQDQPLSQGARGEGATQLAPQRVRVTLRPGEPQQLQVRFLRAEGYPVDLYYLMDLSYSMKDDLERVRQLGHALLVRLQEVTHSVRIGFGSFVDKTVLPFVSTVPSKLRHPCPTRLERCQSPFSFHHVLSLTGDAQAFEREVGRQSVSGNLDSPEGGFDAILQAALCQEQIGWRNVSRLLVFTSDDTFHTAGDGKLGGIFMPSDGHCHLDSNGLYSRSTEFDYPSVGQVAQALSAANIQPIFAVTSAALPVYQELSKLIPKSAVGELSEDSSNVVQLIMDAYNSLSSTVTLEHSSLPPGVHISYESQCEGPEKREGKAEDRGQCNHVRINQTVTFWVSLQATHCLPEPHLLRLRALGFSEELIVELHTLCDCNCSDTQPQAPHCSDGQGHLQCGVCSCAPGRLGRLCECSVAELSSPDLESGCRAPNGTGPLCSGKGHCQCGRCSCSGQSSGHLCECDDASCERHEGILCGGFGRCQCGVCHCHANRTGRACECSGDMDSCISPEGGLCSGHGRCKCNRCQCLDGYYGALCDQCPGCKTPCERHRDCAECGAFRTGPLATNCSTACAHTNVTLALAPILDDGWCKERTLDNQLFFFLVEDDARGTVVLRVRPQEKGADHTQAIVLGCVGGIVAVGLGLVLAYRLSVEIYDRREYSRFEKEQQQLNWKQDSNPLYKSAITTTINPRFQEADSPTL
Kind of assay: α4β7 Integrin Cell Capture Assay. It is filed as cell-based. The note with it: capture of α4β7 integrin expressing RPMI8866 cells on recombinant MadCAM-1 extracellular domain-coated plate; DMEM+0.5% FBS+0.5 mM MnCl2; read-out: EC50 α4β7. The method, boiled down: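 RPMI8866 cells in DMEM + 0.5% FBS + 0.5 mM MnCl2 preincubated with compound 1 h at 37 °C, then allowed to bind 30 min at 37 °C to plates coated with MAdCAM-1 extracellular domain (1.0 μg/mL). Cells fixed with glutaraldehyde, Hoechst-stained, imaged and bound cells counted; EC50 from cell count versus concentration.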

Turning to `CCn1cccc(-c2ccc(C[C@H](NC(=O)c3c(Cl)cccc3Cl)C(=O)O)c3ncccc23)c1=O` [Example 22, (S)-2-(2,6-dichlorobenzamido)-3-(5-(1-ethyl-2-oxo-1,2-dihydropyridin-3-yl)quinolin-8-yl)propanoic acid], the EC50 (in general, the midpoint of the concentration-response curve) was 123 nM.

On to `Cn1cc(C(F)(F)F)cc(-c2ccc(C[C@H](NC(=O)c3c(Cl)cccc3Cl)C(=O)O)c3ncccc23)c1=O` [Example 23, (S)-2-(2,6-dichlorobenzamido)-3-(5-(1-methyl-2-oxo-5-(trifluoromethyl)-1,2-dihydropyridin-3-yl)quinolin-8-yl)propanoic acid], for which the EC50 was determined as 18.5 nM.

With `O=C(N[C@@H](Cc1ccc(-c2cccc3c2OCCC3)c2cccnc12)C(=O)O)c1c(Cl)cccc1Cl` [Example 24, (S)-3-(5-(chroman-8-yl)quinolin-8-yl)-2-(2,6-dichlorobenzamido)propanoic acid], the half-maximal effective concentration (EC50) amounted to 49.5 nM.

`O=C(N[C@@H](Cc1ccc(-c2ncc3ccccc3c2Br)c2cccnc12)C(=O)O)c1c(Cl)cccc1Cl` [Example 25, (S)-3-(5-(4-bromoisoquinolin-3-yl)quinolin-8-yl)-2-(2,6-dichlorobenzamido)propanoic acid]: the EC50 was 20 nM.

With `Cc1nn(C)nc1-c1ccc(C[C@H](NC(=O)c2c(Cl)cccc2Cl)C(=O)O)c2ncccc12` [Example 26, (S)-2-(2,6-dichlorobenzamido)-3-(5-(2,5-dimethyl-2H-1,2,3-triazol-4-yl)quinolin-8-yl)propanoic acid], the EC50 stood at 290 nM.

Consider `Cn1ccnc(-c2ccc(C[C@H](NC(=O)c3c(Cl)cccc3Cl)C(=O)O)c3ncccc23)c1=O` [Example 27, (S)-2-(2,6-dichlorobenzamido)-3-(5-(4-methyl-3-oxo-3,4-dihydropyrazin-2-yl)quinolin-8-yl)propanoic acid], for which the EC50 came to 57.7 nM.

Take `COc1ncc(F)cc1-c1ccc(C[C@H](NC(=O)c2c(Cl)cccc2Cl)C(=O)O)c2ncccc12` [Example 28, (S)-2-(2,6-dichlorobenzamido)-3-(5-(5-fluoro-2-methoxypyridin-3-yl)quinolin-8-yl)propanoic acid]: the EC50 was 194 nM.

With `Cn1cc(Cl)cc(-c2ccc(C[C@H](NC(=O)c3c(Cl)cccc3Cl)C(=O)O)c3ncccc23)c1=O` [Example 29, (S)-3-(5-(5-chloro-1-methyl-2-oxo-1,2-dihydropyridin-3-yl)quinolin-8-yl)-2-(2,6-dichlorobenzamido)propanoic acid], the EC50 amounted to 16.7 nM.

Take `Cc1ccn(C)c(=O)c1-c1ccc(CC(NC(=O)c2c(Cl)cccc2Cl)C(=O)O)c2ncccc12` (centres unmarked) [Example 30, 2-(2,6-Dichlorobenzamido)-3-(5-(1,4-dimethyl-2-oxo-1,2-dihydropyridin-3-yl)quinolin-8-yl)propanoic acid]: the concentration giving a half-maximal response (EC50) was 46.4 nM.

On to `Cc1cc(-c2ccc(C[C@H](NC(=O)c3c(Cl)cccc3Cl)C(=O)O)c3ncccc23)c(=O)n(C)c1` [Example 31, (S)-2-(2,6-Dichlorobenzamido)-3-(5-(1,5-dimethyl-2-oxo-1,2-dihydropyridin-3-yl)quinolin-8-yl)propanoic acid], for which the EC50 turned out to be 23.2 nM.

With `COc1ccn(C)c(=O)c1-c1ccc(CC(NC(=O)c2c(Cl)cccc2Cl)C(=O)O)c2ncccc12` (centres unmarked) [Example 32, 2-(2,6-Dichlorobenzamido)-3-(5-(4-methoxy-1-methyl-2-oxo-1,2-dihydropyridin-3-yl)quinolin-8-yl)propanoic acid], the EC50 was determined as 6 nM.

In the case of `Cc1ccc(-c2ccc(C[C@H](NC(=O)c3c(Cl)cccc3Cl)C(=O)O)c3ncccc23)c(=O)n1C` [Example 33, (S)-2-(2,6-dichlorobenzamido)-3-(5-(1,6-dimethyl-2-oxo-1,2-dihydropyridin-3-yl)quinolin-8-yl)propanoic acid], the concentration for a half-maximal effect (EC50) worked out at 12.2 nM.

As for `Cc1c(-c2ccc(C[C@H](NC(=O)c3c(Cl)cccc3Cl)C(=O)O)c3ncccc23)c(=O)n(C)c2ccccc12` [Example 34, (S)-2-(2,6-dichlorobenzamido)-3-(1,4-dimethyl-2-oxo-1,2-dihydro-[3,5′-biquinolin]-8′-yl)propanoic acid], the EC50 was 4 nM.

`COc1cc(F)cc(C(F)(F)F)c1-c1ccc(C[C@H](NC(=O)c2c(Cl)cccc2Cl)C(=O)O)c2ncccc12` [Example 35, (2S)-2-(2,6-dichlorobenzamido)-3-(5-(4-fluoro-2-methoxy-6-(trifluoromethyl)phenyl)quinolin-8-yl)propanoic acid]: the EC50 stood at 53.5 nM.

Take `COc1cc(F)cc(Cl)c1-c1ccc(C[C@H](NC(=O)c2c(Cl)cccc2Cl)C(=O)O)c2ncccc12` [Example 36, (2S)-3-(5-(2-chloro-4-fluoro-6-methoxyphenyl)quinolin-8-yl)-2-(2,6-dichlorobenzamido)propanoic acid]: the EC50 is 115 nM.

For the molecule `COc1cccc(Cl)c1-c1ccc(C[C@H](NC(=O)c2c(Cl)cccc2Cl)C(=O)O)c2ncccc12` [Example 37, (2S)-3-(5-(2-chloro-6-methoxyphenyl)quinolin-8-yl)-2-(2,6-dichlorobenzamido) propanoic acid], the EC50 is 65.6 nM.

In the case of `O=C(N[C@@H](Cc1ccc(-c2cccc[n+]2[O-])c2cccnc12)C(=O)O)c1c(Cl)cccc1Cl` [Example 38], the EC50 was 212 nM.

`Cn1cccc(-c2ccc(C[C@H](NC(=O)c3c(Cl)cccc3Cl)C(=O)O)c3ncccc23)c1=O` [Example 39, (S)-2-(2,6-dichlorobenzamido)-3-(5-(1-methyl-2-oxo-1,2-dihydropyridin-3-yl)quinolin-8-yl)propanoic acid]: the EC50 was found to be 74 nM.

As to `Cc1c(-c2ccc(C[C@H](NC(=O)c3c(Cl)cccc3Cl)C(=O)O)c3ncccc23)ncc2ccccc12` [Example 40, (S)-2-(2,6-dichlorobenzamido)-3-(5-(4-methylisoquinolin-3-yl)quinolin-8-yl)propanoic acid], the EC50 was determined as 32.7 nM.

For `Cc1c(-c2ccc(C[C@H](NC(=O)c3c(Cl)cccc3Cl)C(=O)O)c3ncccc23)c(=O)n(C)c2cc(F)ccc12` [Example 41, (S)-2-(2,6-dichlorobenzamido)-3-(7-fluoro-1,4-dimethyl-2-oxo-1,2-dihydro-[3,5′-biquinolin]-8′-yl)propanoic acid], the EC50 is 7.5 nM.

For `COc1c(F)cc(F)cc1-c1ccc(C[C@H](NC(=O)c2c(Cl)cccc2Cl)C(=O)O)c2ncccc12` [Example 42, (S)-2-(2,6-dichlorobenzamido)-3-(5-(3,5-difluoro-2-methoxyphenyl)quinolin-8-yl)propanoic acid], the EC50 is 152 nM.

Regarding `COc1c(-c2ccc(C[C@H](NC(=O)c3c(Cl)cccc3Cl)C(=O)O)c3ncccc23)ccc(F)c1F` [Example 43, (S)-2-(2,6-dichlorobenzamido)-3-(5-(3,4-difluoro-2-methoxyphenyl)quinolin-8-yl)propanoic acid], the EC50 was 161 nM.

For the molecule `O=C(N[C@@H](Cc1ccc(-c2c(Cl)cccc2C(F)(F)F)c2cccnc12)C(=O)O)c1c(Cl)cccc1Cl` [Example 44, (2S)-3-(5-(2-chloro-6-(trifluoromethyl)phenyl)quinolin-8-yl)-2-(2,6-dichlorobenzamido)propanoic acid], the EC50 worked out at 538 nM.
